Measured values published in patent EP3454861B1, “BENZOXAZINE OR QUINAZOLINE DERIVATIVES FOR USE IN THE TREATMENT OF ALZHEIMER'S DISEASE” (Biocodex, priority 2016, dated 2017).

How the values were obtained:
neurones corticaux = experiment: Oxidative stress (MetO-positive neurons) in cortical neurons after Aβ1-42; format: cell-based, rats; conditions: Rattus norvegicus, Cortical neurone, Aβ1-42 1,25 µM, 4 h (Aβ1-42 alone 136.98%), read-out: nombre de neurones positifs à MetO
Procedure: Des neurones corticaux de rats sont mis en culture comme dans la méthode décrite par Singer (1999) J. Neurosci. 19:2455-2463. Des rats femelles enceintes de 15 jours sont tuées par dislocation des cervicales (Rats Wistar, Janvier) et le fœtus est retiré de l'utérus. Les cortex sont prélevés et placés dans un milieu glacé de Leibovitz (L15, Panbiotech, Réf : P04-27055, lot : 9310614) contenant 2% de pénicilline (10 000 U/ml) et de streptomycine (10 mg/ml) (PS, Panbiotec, Réf : P06-07100, lot : 48101114) et 1% de sérum-albumine bovine (BSA, Panbiotech, Réf : P06-1391100, lot : H140603). Les cortex sont dissociés par trypsination (0,05% Panbiotech, Réf : P10-023100, lot : 5890314) pendant 20 minutes à 37°C. La réaction est stoppée par addition d'un milieu Eagle modifié de Dulbecco (DMEM, Panbiotech, réf P04-03600, lot : 9670913) contenant de la DNase I grade Il (0,1 mg/ml Panbiotech, Réf : P60-37780100, lot : H140508) et 10 % de sérum de veau fœtal (FCS, Invitrogen, Réf : 10270 à 098, lot : 41Q4120K). Les cellules sont dissociées mécaniquement par 3 passages à travers une pipette de 10 ml. Les cellules sont ensuite centrifugées à 515 g pendant 10 minutes à 4°C. […]

Bax = experiment: ELISA of Bax in mouse hippocampus after Aβ25-35; format: in vivo, souris
Description: (§1) Le 1^er jour : une version « mélangée » (scrambled) du peptide amyloïde β25-35 (Sc.Aβ, témoin négatif) ou le peptide amyloïde β25-35 (Aβ25-35) est injecté par voie intra-cérébroventriculaire (ICV) (le peptide Aβ25-35 provoque l'intoxication cellulaire). Entre le 1^er jour et le 10^ème jour, les traitements sont administrés une fois par jour par voie intrapéritonéale (IP).
(§2) A la fin de la session de rétention d'évitement passif, le 10^ème jour, les animaux sont sacrifiés par décapitation. L'hippocampe et le cortex frontal sont disséqués et congelés dans l'azote liquide. L'hippocampe est utilisé pour mesurer le taux de peroxydation lipidique à l'aide d'une méthode colorimétrique et pour évaluer les taux de 4 marqueurs biochimiques par des tests ELISA. Le cortex est conservé à -80°C en attente d'analyses supplémentaires. Les plasmas sont également conservés en attente d'analyses supplémentaires. Les échantillons biologiques sont jetés après 3 mois.
(§3) Pour tous les dosages, les […] sont homogénéisés, après décongélation, dans un tampon Tris (Tris 50 mM, 150 mM NaCl, pH 7,5) et traités par ultrasons pendant 20 secondes. […] Pour chaque dosage, l'absorbance est lue à 450 nm et la concentration est calculée en utilisant la courbe standard. Les résultats sont exprimés en pg ou ng de marqueur par mg de tissu et en pourcentage de solution Sc.Aβ + véhicule. 6 échantillons par groupe (n = 36 kits ELISA) sont dosés en double.

Bcl2 = experiment: ELISA of Bcl2 in mouse hippocampus after Aβ25-35; format: in vivo, souris
Description: as §1, §2, §3

Caspase-3 = experiment: ELISA of Caspase-3 in mouse hippocampus after Aβ25-35; format: in vivo, souris
Description: as §1, §2, §3

[1] = Aβ25-35/Etifoxine 12.5 mg/kg IP

CCNC1=Nc2ccc(Cl)cc2C(C)(c2ccccc2)O1 (centres unmarked) [Etifoxine, chlorhydratede 6-chloro-2-éthylamino-4-méthyl-4-phényl-4H-[3,1]benzoxazine]
activity at 3 µM (neurones corticaux; étifoxine 3 µM): 108%
activity at 10 µM (neurones corticaux; étifoxine 10 µM): 103%
Taux de protéine Bax (Bax; [1]): 180,1 ± 7,4 % de Sc.Aβ/V
Taux de protéine Bax (Bax; Aβ25-35/Etifoxine 25 mg/kg IP): 132,6± 7,5 % de Sc.Aβ/V
Taux de protéine Bax (Bax; Aβ25-35/Etifoxine 50 mg/kg IP): 99,9 ± 4,2 % de Sc.Aβ/V
Taux de protéine Bcl2 (Bcl2; [1]): 97,2 ± 2,1 % de Sc.Aβ/V
Taux de protéine Bcl2 (Bcl2; Aβ25-35/Etifoxine 25 mg/kg IP): 99,4 ± 2,3 % de Sc.Aβ/V
Taux de protéine Bcl2 (Bcl2; Aβ25-35/Etifoxine 50 mg/kg IP): 102,3 ± 3,2 % de Sc.Aβ/V
Expression CASP-3 (Caspase-3; [1]): 136,8 ± 7,2 % de Sc.Aβ/V
Expression CASP-3 (Caspase-3; Aβ25-35/Etifoxine 25 mg/kg IP): 127,3 ± 10,8 % de Sc.Aβ/V
Expression CASP-3 (Caspase-3; Aβ25-35/Etifoxine 50 mg/kg IP): 109,9 ± 5,6 % de Sc.Aβ/V
